The source of these data is US20240425460A1, “CRYSTAL FORM OF NIROGACESTAT DIHYDROBROMIDE, AND PREPARATION METHOD THEREFOR, AND USE THEREOF” (CRYSTAL PHARMACEUTICAL (SUZHOU) CO., LTD., priority 2022, published 2024).

SMILES strings stand for the structures.

One may read the solubility as the dissolved amount per volume that the medium holds. The low end stands for a poorly soluble substance, the high end for a readily soluble substance.

A short description of data set [1]: physchem. How it is done: 1.9 mg of Form CSII was weighted into a glass vial, then water was added dropwise at 37° C. until the solid is completely dissolved. The maximum insoluble volume and minimum dissolved volume of the sample in water were recorded, and the solubility of Form CSII in water (mg/mL) was calculated.
For data set [2] the following is noted: for Solubility in FaSSIF / Solubility in FeSSIF: 1 h. The source says:
When solubility test is used to predict the in vivo performance of a drug, it is critical to simulate in vivo conditions as closely as possible. Fasted state simulated intestinal fluid (FaSSIF) and fed state simulated intestinal fluid (FeSSIF) can be used to simulate the conditions in vivo and predict the effects of eating, thus solubilities in these media are closer to those in vivo.
A certain amount of Form CSII and prior art Form A were suspended into FeSSIF and FaSSIF to get saturated solutions at 37° C. After equilibrated for 1 h, concentrations of the saturated solutions were measured by HPLC.
A certain amount of Form CSIII and Form A in the prior art were suspended into FeSSIF and FaSSIF to get saturated solutions at 37° C. After equilibrated for 1 h, concentrations of the saturated solutions were measured by HPLC.

Data set [3] in a line: Morphology by polarized light microscopy. As to conditions: PLM, magnification 100 times. Format: physicochemical. How it is done: PLM data in the present disclosure were acquired by Sunny CX40P polarizing microscope.
The parameter of the PLM method of the present disclosure is as follows: • Magnification times: 100
About 0.5 mg Form CSII and prior art Form A were placed on a glass slide, a small amount of immersion oil was added to disperse the sample, and then the system was covered with a coverslip.
About 0.5 mg Form CSIII and prior art Form A were placed on a glass slide, a small amount of immersion oil was added to disperse the sample, and then the system was covered with a coverslip.

A short description of data set [4]: Particle size distribution (Mastersizer 3000, wet mode). Format: physicochemical. How it is done: The particle size distribution data in the present disclosure were acquired by a Mastersizer 3000 laser particle size analyzer of Malvern. The test was carried out in wet mode, using a Hydro MV dispersion device, and the dispersant was Isopar G. The parameters are as follows:
Form CSII and prior art Form A were added into glass vials with the Isopar G (containing 0.2% lecithin). The mixture was mixed thoroughly and transferred into the Hydro MV dispersing device. The experiment was started when the obscuration is in appropriate range. The particle size distributions were tested before and after 60 seconds of ultrasonication to obtain the average particle size, D10 (the portion of particles with diameters below this value is 10%), D50 (the portion of particles with diameters below this value is 50%) and D90 (the portion of particles with diameters below this value is 90%), the results are listed in Table 9.

Data set [5] in a line: Density and flowability (bulk/tapped density, compressibility index). Format: physicochemical. As to conditions: for Compressibility index: c=(ρf−ρ0)/ρf; for Tapped density (ρf): tapped 1250 times. How it is done:
About 300-500 mg of powder were added into a 5-mL measuring cylinder, and a bulk density was recorded. Then the powder was tapped for 1250 times by ZS-2E tap density tester to make it in the tightest state and the tapped volume was recorded. The bulk density (ρ0) and tapped density (ρf) were calculated.
Compressibility also known as the Compressibility index or Carr index is usually utilized to evaluate the flowability of powder or granules during the drug product process. Compressibility index was calculated according to c=(ρf−ρ0)/ρf. According to criteria of flowability recorded in ICH Q4B Annex 13, the smaller the compressibility index, the better the flowability.

A short description of data set [6]: Compressibility (tensile strength after compression at 3 KN). Format: physicochemical. Conditions: 60 mg, Φ6 mm round tooling, T=2H/πDL. As for the experimental part: ENERPAC manual tablet press was used for compression. 60 mg of Form CSII and prior art Form A were weighed and added into the dies of a Φ6 mm round tooling, compressed at 3 KN manually, then stored at room temperature for 24 h until elastic recovery is complete, diameter (D) and thickness (L) were tested with a caliper. Hardness (H) was tested with an intelligent tablet hardness tester. Tensile strength of the powder was calculated with the following formula: T=2H/πDL. […] Under a certain force, the greater the tensile strength, the better the compressibility.

Data set [7] is described as follows: Physical stability upon mechanical force (tableting, XRPD). Format: physicochemical. Conditions: 5 kN pressure for 10 s. The text has this: A certain amount of Form CSII was compressed into a tablet under 5 kN pressure with the dies of a Φ6 mm round tooling by the manual tablet press, and the tablet was kept under 5 kN pressure for 10 s. Crystalline form before and after tableting were checked by XRPD.

Data set [8] is described as follows: Stability of drug substance on storage (XRPD, HPLC). Format: physicochemical. As for the experimental part: A certain amount of Form CSII were stored under different conditions of 25° C./60% RH and 40° C./75% RH after packing with different conditions listed in Table 11. Crystalline forms and chemical purities were checked by XRPD and HPLC, respectively.
Sealed with desiccants and antioxidants: Put a sample into a glass vial, cover the vial with aluminum foil, and punch holes in the foil, then seal the glass vial with 2 g silica gel desiccants and 2.2 g antioxidants in an aluminum foil bag.
A certain amount of Form CSIII were stored under different conditions of 25° C./60% RH, 40° C./75% RH and 60° C./75% RH after packing with different conditions listed in Table 16. Crystalline forms were checked by XRPD.
Sealed with desiccants and antioxidants: Put a sample into a glass vial, cover the vial with aluminum foil, and punch holes in the foil, then seal the glass vial with 2 g silica gel desiccant and 2.2 g antioxidant in an aluminum foil bag.

Data set [9] in a line: Stability of crystalline form in formulation process (XRPD). Format: physicochemical. As to conditions: pre-blending, simulated dry granulation, tableting 5 kN. As for the experimental part: The XRPD of the blank mixed powder and the samples before and after the formulation was tested.
Where [10] appears, read: 25° C./60% RH, sealed with desiccant and antioxidant.
[11] abbreviates: 40° C./75% RH, sealed with desiccant and antioxidant.

As to `Br.Br.CCC[C@H](N[C@H]1CCc2cc(F)cc(F)c2C1)C(=O)Nc1cn(C(C)(C)CNCC(C)(C)C)cn1` [Form A, (S)-2-(((S)-6,8-difluoro-1,2,3,4-tetrahydronaphthalen-2-yl)amino)-N-(1-(2-methyl-1-(neopentylamino)propan-2-yl)-1H-imidazol-4-yl) pentanamide, reference compound], the “Solubility in water, class by standards of Chinese Pharmacopoeia and United States Pharmacopoeia” value in data set [1] is “slightly soluble”. Moreover, in data set [2], the “Solubility in FaSSIF” value was 6.7 and the “Solubility in FeSSIF” value was found to be 7.6. In addition, the Morphology entry in [3] is recorded as “agglomerates”. In addition, in [4] (ultrasonication time 0 s), the Average particle size was found to be 646 μm, the D10 worked out at 21.2 μm, the D50 stood at 415 μm and the D90 was found to be 1640 μm. In [4] (ultrasonication time 60 s), this molecule showed an Average particle size of 629 μm, a D10 of 14.4 μm, a D50 of 356 μm and a D90 of 1660 μm. In data set [5], the “Bulk density (ρ0)” value is listed as 0.251 g/mL, the Compressibility index stood at 10.8% and the “Tapped density (ρf)” value is 0.282 g/mL. In data set [6], the Tensile strength amounted to 0.37 MPa.

As for `Br.Br.CCC[C@H](N[C@H]1CCc2cc(F)cc(F)c2C1)C(=O)Nc1cn(C(C)(C)CNCC(C)(C)C)cn1` [Form CSII, (S)-2-(((S)-6,8-difluoro-1,2,3,4-tetrahydronaphthalen-2-yl)amino)-N-(1-(2-methyl-1-(neopentylamino)propan-2-yl)-1H-imidazol-4-yl) pentanamide], the “Solubility in water, times that of Form A” value in data set [1] is recorded as 3-5 times. Also, the solubility in [1] (37 °C, water, thermodynamic from solid) lay within 19 to 38 mg/mL. In addition, in [2], the “Solubility in FaSSIF, times that of prior art Form A” value worked out at 1.5 times; the “Solubility in FeSSIF, times that of prior art Form A” value stood at 1.5 times; the “Solubility in FaSSIF” value is recorded as 9.8; the “Solubility in FeSSIF” value stood at 11.7. In addition, the Morphology entry in data set [3] is “uniform plate crystalline form”. In data set [4] (ultrasonication time 0 s), this molecule gave an Average particle size of 198 μm, a D10 of 21.9 μm, a D50 of 157 μm and a D90 of 435 μm. In data set [4] (ultrasonication time 60 s), this molecule showed an Average particle size of 119 μm, a D10 of 10.3 μm, a D50 of 81.7 μm and a D90 of 282 μm. Also, in [5], the “Bulk density (ρ0)” value is 0.49 g/mL, the Compressibility index is on record as 5.3% and the “Tapped density (ρf)” value worked out at 0.51 g/mL. The molecule further came in with a Tensile strength in data set [6] of 0.68 MPa. The “Crystalline form after tableting” value in data set [7] was “remains stable after tableting”. In addition, the Purity after storage in data set [8] (25° C./60% RH, 9 months, sealed with desiccants and antioxidants, HPLC) is listed as 99.43%. Further, the “Time the form keeps stable” value in [8] (setting [10]) is “at least 9 months”. In data set [8] (40° C./75% RH, 6 months, sealed with desiccants and antioxidants, HPLC), this molecule gave a Purity after storage of 99.42%. In addition, the “Time the form keeps stable” value in data set [8] (setting [11]) is given as “at least 6 months”. The molecule further gave a Purity in data set [8] (initial, HPLC) of 99.37%. In addition, the “Crystalline form after formulation process” value in data set [9] is “remains stable after the formulation process”.

Turning to `Br.Br.CCC[C@H](N[C@H]1CCc2cc(F)cc(F)c2C1)C(=O)Nc1cn(C(C)(C)CNCC(C)(C)C)cn1` [Form CSIII, (S)-2-(((S)-6,8-difluoro-1,2,3,4-tetrahydronaphthalen-2-yl)amino)-N-(1-(2-methyl-1-(neopentylamino)propan-2-yl)-1H-imidazol-4-yl) pentanamide], in data set [2], the “Solubility in FaSSIF, times that of prior art Form A” value is 1.3 times; the “Solubility in FeSSIF, times that of prior art Form A” value was determined as 1.5 times; the “Solubility in FaSSIF” value amounted to 8.7; the “Solubility in FeSSIF” value came out at 11.7. Further, the Morphology entry in data set [3] was “uniform plate crystalline form”. In addition, in data set [8] (setting [10]), the “Time the form keeps stable” value is “at least 3 months”. For the same molecule, the “Time the form keeps stable” value in [8] (setting [11]) was “at least 3 months”. In addition, the “Time the form keeps stable” value in data set [8] (60° C./75% RH, sealed with desiccants and antioxidants) is “at least 2 months”.
